Laboratory results: PMC3395614, “Functional Evolution of Mammalian Odorant Receptors” (PLoS Genetics, 2012)
pEC50: −log10 of the molar value.

What was measured:
h2J3 = biological target: T1, h2J3 (Homo sapiens, UniProt O76001); assay: cell-based; set-up: species or system Hana3A; cAMP-mediated luciferase reporter dose-response of odorant receptor orthologs and paralogs
T1 construct: gene OR2J3
Excerpt: (§1) Figure 6 Dose-response curves of OR orthologs and paralogs to a given ligand. (A) OR5K1 orthologs and 5 K subfamily to eugenol methyl ether. (B) OR8D1 orthologs and 8D subfamily members to 4,5-dimethyl-3-hydroxy-2,5-dihydrofuran-2-one. […] X-axis is the concentration of a given odor in Log Molar. Y-axis is normalized response (n = 3, ± S.E.M.). Human (h), chimpanzee (c) and rhesus macaque (m), mouse receptors (m+number); para indicates a receptor that is a paralog to the human reference OR. Vector control is Rho-pCI. See Figure S11 for additional dose-response data from orthologs and subfamily members. Supplementary file pgen.1002821.s018.pdf: Table S5 Comparison of dose-response curves from orthologs and paralogs. LogEC50 (M), Span (dynamic-range) for each OR is given. […] F-ratio and p-values from extra sum-of-squares test. (PDF) Click here for additional data file.  Figure 2 Response of OR orthologs to 42 chemically diverse odors. (A) Tuning curves of human, chimp and macaque OR2W1 orthologs tested against 42 odors using a cAMP-mediated luciferase assay. Odorants are ordered along the x-axis according to the response elicited from the human OR2W1, with the best ligands closer to the center. Y-axis represents the luciferase response to an odor at 100 µM (n = 3, ± S.E.). Negative values on the y-axis indicate the odor elicited an inhibitory response on OR signaling. See Figure S6 for additional tuning curves. (B) Response of chimp and macaque OR2W1 orthologs (variant responses) plotted against the human OR2W1 response using the data from (A). X-axis and y-axis are response in luciferase assay at 100 µM (n = 3, ± S.E.). The black line represents the unit-slope line. Odor abbreviations in Table S3.

h2A25 = biological target: T2, h2A25 (Homo sapiens, UniProt A4D2G3); assay: cell-based; set-up: species or system Hana3A; cAMP-mediated luciferase reporter dose-response of odorant receptor orthologs and paralogs
T2 construct: gene OR2A25
Excerpt: as §1

h2J1 = biological target: T3, h2J1 (Homo sapiens, UniProt Q9GZK6); assay: cell-based; set-up: species or system Hana3A; cAMP-mediated luciferase reporter dose-response of odorant receptor orthologs and paralogs
T3 construct: gene OR2J1
Excerpt: as §1

OR2J2 (human) [1] = biological target: T4, OR2J2 (human) (Homo sapiens, UniProt O76002); assay: cell-based; set-up: species or system Hana3A; cAMP-mediated luciferase reporter dose-response of odorant receptor orthologs and paralogs
T4 construct: full-length ORF from genomic DNA, N-terminal Rho-tag, Hana3A cells with human RTP1S
T4 sequence (O76002 1-312): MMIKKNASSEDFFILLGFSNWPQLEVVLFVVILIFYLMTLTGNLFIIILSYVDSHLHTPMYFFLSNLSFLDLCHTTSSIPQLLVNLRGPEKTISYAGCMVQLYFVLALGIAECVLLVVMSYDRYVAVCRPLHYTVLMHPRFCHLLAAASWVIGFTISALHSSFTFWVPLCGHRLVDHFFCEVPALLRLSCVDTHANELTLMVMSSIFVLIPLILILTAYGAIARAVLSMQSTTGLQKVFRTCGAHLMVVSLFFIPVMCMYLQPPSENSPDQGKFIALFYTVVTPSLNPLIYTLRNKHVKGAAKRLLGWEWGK
Excerpt: as §1

h10G3 = biological target: T5, h10G3 (Homo sapiens, UniProt Q8NGC4); assay: cell-based; set-up: species or system Hana3A; cAMP-mediated luciferase reporter dose-response of odorant receptor orthologs and paralogs
T5 construct: gene OR10G3
Excerpt: as §1

h2B11 = biological target: T6, h2B11 (Homo sapiens, UniProt Q5JQS5); assay: cell-based; set-up: species or system Hana3A; cAMP-mediated luciferase reporter dose-response of odorant receptor orthologs and paralogs
T6 construct: gene OR2B11
Excerpt: as §1

h5P3 = biological target: T7, h5P3 (Homo sapiens, UniProt Q8WZ94); assay: cell-based; set-up: species or system Hana3A; cAMP-mediated luciferase reporter dose-response of odorant receptor orthologs and paralogs
T7 construct: gene OR5P3
Excerpt: as §1

mouse MOR256-17 = biological target: T8, mouse MOR256-17 (Mus musculus, UniProt P23275); assay: cell-based; set-up: species or system Hana3A; cAMP-mediated luciferase reporter assay of odorant receptor activation, dose-response, ortholog pairs; settings: ortholog set
T8 construct: gene Or2c1
Protocol: (§2) Figure 2 Response of OR orthologs to 42 chemically diverse odors. (A) Tuning curves of human, chimp and macaque OR2W1 orthologs tested against 42 odors using a cAMP-mediated luciferase assay. Odorants are ordered along the x-axis according to the response elicited from the human OR2W1, with the best ligands closer to the center. Y-axis represents the luciferase response to an odor at 100 µM (n = 3, ± S.E.). Negative values on the y-axis indicate the odor elicited an inhibitory response on OR signaling. See Figure S6 for additional tuning curves. (B) Response of chimp and macaque OR2W1 orthologs (variant responses) plotted against the human OR2W1 response using the data from (A). X-axis and y-axis are response in luciferase assay at 100 µM (n = 3, ± S.E.). The black line represents the unit-slope line. Odor abbreviations in Table S3. We next wanted to examine the functional changes in sensitivity of orthologs to individual ligands by testing each ortholog across a range of concentrations. We selected a single odor for a given OR to construct a representative dose-response curve, fit the data to a sigmoid curve, and then compared the response of the human allele against the primate orthologs and the mouse allele with the rat ortholog using an extra sum of squares test. […]

chimp OR5K1 = biological target: T9, chimp OR5K1 (Pan troglodytes, UniProt A0A2J8MY22); assay: cAMP-mediated CRE-luciferase reporter dose-response, Hana3A cells; type: cell-based; settings: agonist; human RTP1S and M3 receptor co-expressed; odor 10 nM to 10 mM
T9 construct: gene LOC470870; full-length ORF from genomic DNA, N-terminal Rho-tag, Hana3A cells with human RTP1S

chimp OR8D1 [2] = biological target: T10, chimp OR8D1 (Pan troglodytes, UniProt A0A2J8N1S1); assay: as above; type: cell-based; settings: agonist; human RTP1S and M3 receptor co-expressed; odor 10 nM to 10 mM
T10 construct: gene LOC466828; full-length ORF from genomic DNA, N-terminal Rho-tag, Hana3A cells with human RTP1S

chimp OR8D1 [3] = biological target: T10, chimp OR8D1; assay: cell-based; set-up: species or system Hana3A; cAMP-mediated luciferase reporter dose-response of odorant receptor orthologs and paralogs
Excerpt: as §1

human OR51L1 = human OR51L1 (Homo sapiens, UniProt Q8NGJ5); assay: cell-based; set-up: species or system Hana3A; cAMP-mediated luciferase reporter assay of odorant receptor activation, dose-response, ortholog pairs; settings: ortholog set
Protocol: as §2

h10G9 = biological target: T11, h10G9 (Homo sapiens, UniProt Q8NGN4); assay: cell-based; set-up: species or system Hana3A; cAMP-mediated luciferase reporter dose-response of odorant receptor orthologs and paralogs
T11 construct: gene OR10G9
Excerpt: as §1

h10G4 = biological target: T12, h10G4 (Homo sapiens, UniProt Q8NGN3); assay: cell-based; set-up: species or system Hana3A; cAMP-mediated luciferase reporter dose-response of odorant receptor orthologs and paralogs
T12 construct: gene OR10G4
Excerpt: as §1

OR2J2 (human) [4] = biological target: T4, OR2J2 (human); assay: cAMP-mediated CRE-luciferase reporter dose-response, Hana3A cells; type: cell-based; settings: agonist; human RTP1S and M3 receptor co-expressed; odor 10 nM to 10 mM
h56A4 = biological target: T13, h56A4 (Homo sapiens, UniProt Q8NGH8); assay: cell-based; set-up: species or system Hana3A; cAMP-mediated luciferase reporter dose-response of odorant receptor orthologs and paralogs
T13 construct: gene OR56A4
Excerpt: as §1

h56A1 = biological target: T14, h56A1 (Homo sapiens, UniProt Q8NGH5); assay: cell-based; set-up: species or system Hana3A; cAMP-mediated luciferase reporter dose-response of odorant receptor orthologs and paralogs
T14 construct: gene OR56A1
Excerpt: as §1

h56A5 = biological target: T15, h56A5 (Homo sapiens, UniProt P0C7T3); assay: cell-based; set-up: species or system Hana3A; cAMP-mediated luciferase reporter dose-response of odorant receptor orthologs and paralogs
T15 construct: gene OR56A5
Excerpt: as §1

h51E1 = biological target: T16, h51E1 (Homo sapiens, UniProt Q8TCB6); assay: cell-based; set-up: species or system Hana3A; cAMP-mediated luciferase reporter dose-response of odorant receptor orthologs and paralogs
T16 construct: gene OR51E1
Excerpt: as §1

h10J5 = biological target: T17, h10J5 (Homo sapiens, UniProt Q8NHC4); assay: cell-based; set-up: species or system Hana3A; cAMP-mediated luciferase reporter dose-response of odorant receptor orthologs and paralogs
T17 construct: gene OR10J5
Excerpt: as §1

h10J1 = biological target: T18, h10J1 (Homo sapiens, UniProt P30954); assay: cell-based; set-up: species or system Hana3A; cAMP-mediated luciferase reporter dose-response of odorant receptor orthologs and paralogs
T18 construct: gene OR10J1
Excerpt: as §1

MOR267-13 = biological target: T19, MOR267-13 (Mus musculus, UniProt Q62007); assay: cell-based; set-up: species or system Hana3A; cAMP-mediated luciferase reporter assay of odorant receptor activation, dose-response, orthologs and paralogs; settings: ortholog and paralog set
T19 construct: gene Or10j5
Protocol: Figure 2 Response of OR orthologs to 42 chemically diverse odors. (A) Tuning curves of human, chimp and macaque OR2W1 orthologs tested against 42 odors using a cAMP-mediated luciferase assay. Odorants are ordered along the x-axis according to the response elicited from the human OR2W1, with the best ligands closer to the center. Y-axis represents the luciferase response to an odor at 100 µM (n = 3, ± S.E.). Negative values on the y-axis indicate the odor elicited an inhibitory response on OR signaling. See Figure S6 for additional tuning curves. (B) Response of chimp and macaque OR2W1 orthologs (variant responses) plotted against the human OR2W1 response using the data from (A). X-axis and y-axis are response in luciferase assay at 100 µM (n = 3, ± S.E.). The black line represents the unit-slope line. Odor abbreviations in Table S3. Figure 6 Dose-response curves of OR orthologs and paralogs to a given ligand. (A) OR5K1 orthologs and 5 K subfamily to eugenol methyl ether. (B) OR8D1 orthologs and 8D subfamily members to 4,5-dimethyl-3-hydroxy-2,5-dihydrofuran-2-one. […] X-axis is the concentration of a given odor in Log Molar. Y-axis is normalized response (n = 3, ± S.E.M.). Human (h), chimpanzee (c) and rhesus macaque (m), mouse receptors (m+number); para indicates a receptor that is a paralog to the human reference OR. Vector control is Rho-pCI. […]

chimp OR8K3 [5] = biological target: T20, chimp OR8K3 (Pan troglodytes, UniProt A0A2J8LC19); assay: cAMP-mediated CRE-luciferase reporter dose-response, Hana3A cells; type: cell-based; settings: agonist; human RTP1S and M3 receptor co-expressed; odor 10 nM to 10 mM
T20 construct: gene LOC466557; full-length ORF from genomic DNA, N-terminal Rho-tag, Hana3A cells with human RTP1S

chimp OR8K3 [6] = biological target: T20, chimp OR8K3; assay: cell-based; set-up: species or system Hana3A; cAMP-mediated luciferase reporter dose-response of odorant receptor orthologs and paralogs
Excerpt: as §1

T20 sequence (A0A2J8LC19 1-312): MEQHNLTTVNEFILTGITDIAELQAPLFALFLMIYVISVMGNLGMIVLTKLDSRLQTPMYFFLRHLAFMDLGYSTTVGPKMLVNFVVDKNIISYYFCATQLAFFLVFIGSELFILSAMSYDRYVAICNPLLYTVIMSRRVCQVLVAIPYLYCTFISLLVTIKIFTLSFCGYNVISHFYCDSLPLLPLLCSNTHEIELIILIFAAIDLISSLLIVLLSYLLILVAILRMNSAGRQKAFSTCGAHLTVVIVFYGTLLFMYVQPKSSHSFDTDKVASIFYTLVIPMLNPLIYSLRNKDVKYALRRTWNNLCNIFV
T1 sequence (O76001 whole entry): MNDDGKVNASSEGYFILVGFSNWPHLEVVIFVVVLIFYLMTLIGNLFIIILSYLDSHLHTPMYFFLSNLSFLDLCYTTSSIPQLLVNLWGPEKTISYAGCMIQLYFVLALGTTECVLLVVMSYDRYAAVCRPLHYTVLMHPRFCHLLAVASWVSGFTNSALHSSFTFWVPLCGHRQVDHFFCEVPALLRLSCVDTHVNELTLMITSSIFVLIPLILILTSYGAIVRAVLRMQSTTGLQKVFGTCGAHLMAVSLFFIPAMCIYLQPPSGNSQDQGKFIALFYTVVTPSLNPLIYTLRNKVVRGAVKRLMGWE
T5 sequence (Q8NGC4 whole entry): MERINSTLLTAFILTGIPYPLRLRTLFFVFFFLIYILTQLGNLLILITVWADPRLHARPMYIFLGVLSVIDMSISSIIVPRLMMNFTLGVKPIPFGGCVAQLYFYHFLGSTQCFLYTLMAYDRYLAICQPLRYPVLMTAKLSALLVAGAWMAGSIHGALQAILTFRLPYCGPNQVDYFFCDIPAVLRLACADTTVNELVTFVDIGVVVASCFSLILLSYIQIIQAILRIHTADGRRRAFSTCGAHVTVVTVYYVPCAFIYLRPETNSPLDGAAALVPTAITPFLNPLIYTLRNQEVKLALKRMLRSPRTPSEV
T3 sequence (Q9GZK6 whole entry): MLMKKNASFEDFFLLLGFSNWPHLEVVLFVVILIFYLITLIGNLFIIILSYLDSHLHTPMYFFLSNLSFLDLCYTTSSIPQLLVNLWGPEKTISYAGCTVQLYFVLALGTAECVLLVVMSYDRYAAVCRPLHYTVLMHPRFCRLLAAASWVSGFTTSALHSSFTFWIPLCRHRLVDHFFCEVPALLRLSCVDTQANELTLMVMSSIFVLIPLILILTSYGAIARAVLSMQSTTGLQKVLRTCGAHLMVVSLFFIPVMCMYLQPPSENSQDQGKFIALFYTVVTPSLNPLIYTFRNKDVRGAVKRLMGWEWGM
T10 sequence (A0A2J8N1S1 1-308): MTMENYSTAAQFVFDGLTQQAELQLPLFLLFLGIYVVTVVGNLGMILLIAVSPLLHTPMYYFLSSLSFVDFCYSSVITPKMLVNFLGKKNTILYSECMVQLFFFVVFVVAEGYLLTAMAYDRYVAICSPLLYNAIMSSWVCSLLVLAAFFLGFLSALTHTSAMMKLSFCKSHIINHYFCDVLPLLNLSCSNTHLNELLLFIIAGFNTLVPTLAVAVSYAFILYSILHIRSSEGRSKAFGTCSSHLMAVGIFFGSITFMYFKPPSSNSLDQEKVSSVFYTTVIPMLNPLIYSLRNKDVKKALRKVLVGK
Sequence of human OR51L1 (Q8NGJ5 whole entry): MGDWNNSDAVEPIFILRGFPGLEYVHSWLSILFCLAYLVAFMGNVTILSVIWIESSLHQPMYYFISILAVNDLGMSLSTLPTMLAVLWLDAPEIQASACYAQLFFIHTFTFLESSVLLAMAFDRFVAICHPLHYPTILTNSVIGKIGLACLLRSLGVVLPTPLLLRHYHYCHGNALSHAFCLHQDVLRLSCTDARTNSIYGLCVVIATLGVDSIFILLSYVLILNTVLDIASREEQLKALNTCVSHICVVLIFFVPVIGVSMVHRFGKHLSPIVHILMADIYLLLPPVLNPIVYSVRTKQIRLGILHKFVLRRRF
T8 sequence (P23275 whole entry): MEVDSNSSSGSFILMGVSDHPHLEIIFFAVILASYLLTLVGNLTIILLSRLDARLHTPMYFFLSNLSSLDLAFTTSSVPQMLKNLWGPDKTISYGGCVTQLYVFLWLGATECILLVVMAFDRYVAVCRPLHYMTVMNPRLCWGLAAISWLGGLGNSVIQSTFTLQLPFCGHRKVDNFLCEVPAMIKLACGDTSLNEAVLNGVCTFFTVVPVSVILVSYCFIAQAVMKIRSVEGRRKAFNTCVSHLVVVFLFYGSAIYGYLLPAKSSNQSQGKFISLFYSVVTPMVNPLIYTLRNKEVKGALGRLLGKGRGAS
T16 sequence (Q8TCB6 whole entry): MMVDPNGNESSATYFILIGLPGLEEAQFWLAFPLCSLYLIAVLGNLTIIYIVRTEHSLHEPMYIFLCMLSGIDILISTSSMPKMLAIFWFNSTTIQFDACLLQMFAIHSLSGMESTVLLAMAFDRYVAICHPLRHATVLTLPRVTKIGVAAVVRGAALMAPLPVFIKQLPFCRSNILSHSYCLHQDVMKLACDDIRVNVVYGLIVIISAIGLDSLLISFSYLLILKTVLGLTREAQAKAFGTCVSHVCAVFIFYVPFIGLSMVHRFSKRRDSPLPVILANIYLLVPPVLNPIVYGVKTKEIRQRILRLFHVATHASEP
T15 sequence (P0C7T3 whole entry): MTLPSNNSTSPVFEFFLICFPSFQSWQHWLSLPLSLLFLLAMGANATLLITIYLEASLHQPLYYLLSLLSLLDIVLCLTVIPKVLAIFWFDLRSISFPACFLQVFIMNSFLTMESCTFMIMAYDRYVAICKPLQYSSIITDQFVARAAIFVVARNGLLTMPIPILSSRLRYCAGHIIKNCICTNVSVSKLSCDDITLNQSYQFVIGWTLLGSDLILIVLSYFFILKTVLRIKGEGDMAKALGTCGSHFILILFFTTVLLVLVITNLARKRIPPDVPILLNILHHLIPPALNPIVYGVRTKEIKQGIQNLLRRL
T11 sequence (Q8NGN4 whole entry): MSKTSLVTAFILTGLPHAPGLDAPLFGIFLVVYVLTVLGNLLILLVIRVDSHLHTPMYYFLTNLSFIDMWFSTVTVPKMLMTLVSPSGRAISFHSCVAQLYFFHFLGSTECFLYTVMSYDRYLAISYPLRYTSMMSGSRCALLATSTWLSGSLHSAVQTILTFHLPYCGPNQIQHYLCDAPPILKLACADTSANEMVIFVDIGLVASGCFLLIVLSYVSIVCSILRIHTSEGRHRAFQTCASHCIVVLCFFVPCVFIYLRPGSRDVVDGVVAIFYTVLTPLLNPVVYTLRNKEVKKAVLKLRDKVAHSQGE
T7 sequence (Q8WZ94 whole entry): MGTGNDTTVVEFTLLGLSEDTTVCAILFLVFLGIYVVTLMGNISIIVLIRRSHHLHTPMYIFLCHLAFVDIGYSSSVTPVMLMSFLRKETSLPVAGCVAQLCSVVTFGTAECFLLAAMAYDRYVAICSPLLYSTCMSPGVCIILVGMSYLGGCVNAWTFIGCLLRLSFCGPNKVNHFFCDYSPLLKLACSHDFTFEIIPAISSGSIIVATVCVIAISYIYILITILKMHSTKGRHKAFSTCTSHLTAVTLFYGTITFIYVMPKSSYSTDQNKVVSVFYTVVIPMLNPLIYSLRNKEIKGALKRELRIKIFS
T17 sequence (Q8NHC4 whole entry): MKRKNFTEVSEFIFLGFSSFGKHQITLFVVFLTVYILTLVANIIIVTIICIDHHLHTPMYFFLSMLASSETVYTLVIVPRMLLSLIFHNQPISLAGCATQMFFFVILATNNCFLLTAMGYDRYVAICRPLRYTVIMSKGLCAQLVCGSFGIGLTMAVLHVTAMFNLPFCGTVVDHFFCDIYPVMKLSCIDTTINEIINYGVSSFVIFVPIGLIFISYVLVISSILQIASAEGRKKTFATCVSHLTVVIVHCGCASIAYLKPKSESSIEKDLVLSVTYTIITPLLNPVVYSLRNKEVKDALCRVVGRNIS
T2 sequence (A4D2G3 whole entry): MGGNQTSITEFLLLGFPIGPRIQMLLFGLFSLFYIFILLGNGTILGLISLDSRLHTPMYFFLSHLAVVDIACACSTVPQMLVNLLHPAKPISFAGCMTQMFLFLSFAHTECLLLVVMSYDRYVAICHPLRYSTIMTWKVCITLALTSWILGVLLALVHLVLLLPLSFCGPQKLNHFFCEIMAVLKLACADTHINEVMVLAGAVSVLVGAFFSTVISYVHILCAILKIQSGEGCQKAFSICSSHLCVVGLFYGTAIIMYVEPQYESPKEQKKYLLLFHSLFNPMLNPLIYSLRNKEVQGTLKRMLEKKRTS
T6 sequence (Q5JQS5 whole entry): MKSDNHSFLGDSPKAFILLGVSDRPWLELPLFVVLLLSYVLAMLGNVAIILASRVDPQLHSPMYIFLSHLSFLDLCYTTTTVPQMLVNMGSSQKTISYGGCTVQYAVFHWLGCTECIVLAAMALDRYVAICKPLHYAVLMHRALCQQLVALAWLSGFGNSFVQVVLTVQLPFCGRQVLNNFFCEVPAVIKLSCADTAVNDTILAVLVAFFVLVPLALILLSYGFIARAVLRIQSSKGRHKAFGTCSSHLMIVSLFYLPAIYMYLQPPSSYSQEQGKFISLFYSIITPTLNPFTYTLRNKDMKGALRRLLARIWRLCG
T12 sequence (Q8NGN3 whole entry): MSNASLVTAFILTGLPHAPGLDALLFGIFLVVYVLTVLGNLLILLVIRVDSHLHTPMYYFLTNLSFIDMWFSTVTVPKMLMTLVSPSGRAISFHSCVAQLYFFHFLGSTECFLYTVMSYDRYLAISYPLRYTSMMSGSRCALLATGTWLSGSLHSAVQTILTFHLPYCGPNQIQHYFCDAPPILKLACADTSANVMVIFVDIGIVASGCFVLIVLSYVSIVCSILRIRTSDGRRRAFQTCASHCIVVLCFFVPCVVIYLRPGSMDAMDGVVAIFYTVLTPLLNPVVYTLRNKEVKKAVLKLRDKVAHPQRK

CC(=O)OC/C=C(\C)CCC=C(C)C [geranyl acetate]
pEC50 (h2J3): 3.79
pEC50 (h2A25): 5.02
pEC50 (h2J1): 3.32
pEC50 (OR2J2 (human) [1]): 4.37

C=CCc1ccc(O)c(OC)c1 [eugenol]
pEC50 (h10G3): 3.88

O=c1ccc2ccccc2o1 [coumarin]
pEC50 (h2B11): 4.14
pEC50 (h5P3): 5.53
pEC50 (mouse MOR256-17): 4.35

C=CCc1ccc(OC)c(OC)c1 [eugenol methyl ether]
LogEC50 (chimp OR5K1): human OR5K1 is hyperfunctional to both chimp and macaque OR5K1 orthologs

CC1=C(O)C(=O)OC1C (stereo not shown) [4,5-dimethyl-3-hydroxy-2,5-dihydrofuran-2-one]
LogEC50 (chimp OR8D1 [2]): Human OR8D1 is hyperfunctional to chimp and macaque OR8D1 orthologs
pEC50 (chimp OR8D1 [3]): 4.73

C=CCOC(=O)Cc1ccccc1 [allyl phenyl acetate]
pEC50 (human OR51L1): 5.04

CCOc1cc(C=O)ccc1O [ethyl vanillin]
pEC50 (h10G9): 3.27
pEC50 (h10G4): 4.39
pEC50 (h10G3): 4.38

CCCCCCCCO [1-octanol]
pEC50 (h2J3): 5.73
pEC50 (h2J1): 3.95
pEC50 (OR2J2 (human) [1]): 5.13
LogEC50 (OR2J2 (human) [4]): OR2J2 orthologs and 2J subfamily members to 1-octanol

CCCCCCCCCC=O [decyl aldehyde]
pEC50 (h56A4): 3.72
pEC50 (h56A1): 3.24
pEC50 (h56A5): 3.79

CCCC(=O)O [butyric acid]
pEC50 (h51E1): 4.24

CC(C)(O)CCCC1=CCC(C=O)CC1 (stereo not shown) [lyral]
pEC50 (h10J5): 4.32
pEC50 (h10J1): 3.14
pEC50 (MOR267-13): 4.68

CC(C)[C@H]1CC[C@H](C)C[C@@H]1O [(+)-menthol]
LogEC50 (chimp OR8K3 [5]): human and chimp OR8K3 orthologs are indistinguishable in their response to (+)-menthol
pEC50 (chimp OR8K3 [6]): 5.04
